Target: T1, Aurora-2 (Homo sapiens, UniProt O14965)
T1 sequence (O14965 1-403): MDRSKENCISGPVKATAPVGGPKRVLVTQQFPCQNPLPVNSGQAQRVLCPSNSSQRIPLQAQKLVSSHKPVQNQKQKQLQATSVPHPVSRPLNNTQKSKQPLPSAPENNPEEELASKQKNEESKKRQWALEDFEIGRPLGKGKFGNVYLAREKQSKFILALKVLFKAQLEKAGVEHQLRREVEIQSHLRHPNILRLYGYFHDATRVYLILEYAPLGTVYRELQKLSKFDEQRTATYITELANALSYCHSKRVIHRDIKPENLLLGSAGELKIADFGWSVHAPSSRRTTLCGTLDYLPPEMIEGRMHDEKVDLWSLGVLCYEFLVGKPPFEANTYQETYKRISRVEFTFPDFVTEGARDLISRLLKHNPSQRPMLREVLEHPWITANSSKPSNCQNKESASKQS
Assay: Inhibition assay of Aurora-2 activity (SPA technology)
Assay type: biochemical
Conditions: screened according to the methods of the pharmacology section; read-out: IC50values for Aur2 inhibition
Experimental: The inhibiting activity and the potency of selected compounds is determined through a method of assay based on the use of the SPA technology (Amersham Pharmacia Biotech).
The assay consists of the transfer of radioactivity labelled phosphate moiety by the kinase to a biotinylated substrate. The resulting 33P-labelled biotinylated product is allowed to bind to streptavidin-coated SPA beads (biotin capacity 130 pmol/mg), and light emitted was measured in a scintillation counter.
Kinase reaction: 8 µM biotinylated peptide (4 repeats of LRRWSLG, commercially available from Sigma, catalogue no. L-3523), 10 µM ATP (0.5 uCi P^33γ-ATP), 7.5 ng Aurora 2, inhibitor in a final volume of 30 µl buffer (HEPES 50 mM pH 7.0, MgCl2 10 mM, 1 mM DTT, 0.2 mg/mL BSA, 3 µM orthovanadate) were added to each well of a 96 U bottom well plate. After 60 minutes at room temperature incubation, the reaction was stopped and biotinylated peptide captured by adding 100 µl of bead suspension.
Stratification: 100 µl of CsCl 5 M were added to each well and stood for 4 hours before radioactivity was counted in the Top-Count instrument.
IC50 determination: inhibitors were tested at different concentrations ranging from 0.0015 to 10 µM. Experimental data were analyzed by the computer program GraphPad Prizm using the four parameter logistic equation: y = bottom+(top-bottom)/(1+10^((logIC50-x)*slope)) where x is the logarithm of the inhibitor concentration, y is the response; y starts at bottom and goes to top with a sigmoid shape. Ki calculation: Experimental method: Reaction was carried out in buffer (10 mM Tris, pH 7.5, 10 mM MgCl2, 0.2 mg/mL BSA, 7.5 mM DTT) containing 3.7 nM enzyme, histone and ATP (constant ratio of cold/labeled ATP 1/3000). The reaction was stopped with EDTA and the substrate captured on phosphomembrane (Multiscreen 96 well plates from Millipore). After extensive washing, the multiscreen plates were read on a top counter. Control (time zero) for each ATP and histone concentrations was measured.

SMILES | IC50 [nM]
CC(C)(NC(=O)c1cc2[nH]nc(NC(=O)c3ccc(F)cc3)c2o1)c1ccccc1 [Compound 4, 3-[(4-fluorobenzoyl)amino]-N-(1-methyl-1-phenylethyl)-1H-furo[3,2-c]pyrazole-5-carboxamide] | < 10
O=C(Nc1n[nH]c2cc(C(=O)NC3(c4ccccc4)CC3)oc12)c1ccc(N2CCOCC2)cc1 [Compound 7, 3-[(4-morpholin-4-ylbenzoyl)amino]-N-(1-phenylcyclopropyl)-1H-furo[3,2-c]pyrazole-5-carboxamide] | < 10
CN1CCN(c2ccc(C(=O)Nc3n[nH]c4cc(C(=O)NC(C)(C)c5ccccc5)oc34)cc2)CC1 [Compound 10, N-(1-methyl-1-phenylethyl)-3-{[4-(4-methylpiperazin-1-yl)benzoyl]amino}-1H-furo[3,2-c]pyrazole-5-carboxamide] | < 10
COc1ccc(C(=O)Nc2n[nH]c3cc(C(=O)NC(C)(C)c4ccccc4)oc23)cc1 [Compound 18, 3-[(4-methoxybenzoyl)amino]-N-(1-methyl-1-phenylethyl)-1H-furo[3,2-c]pyrazole-5-carboxamide] | < 10
CN1CCN(c2ccc(C(=O)Nc3n[nH]c4cc(C(=O)NC(C)(C)c5cccc(Cl)c5)oc34)cc2)CC1 [Compound 26, N-[1-(3-chlorophenyl)-1-methylethyl]-3-{[4-(4-methylpiperazin-1-yl)benzoyl]amino}-1H-furo[3,2-c]pyrazole-5-carboxamide] | < 10
CN1CCN(c2ccc(C(=O)Nc3n[nH]c4cc(C(=O)NC5(c6ccccc6)CCCC5)oc34)cc2)CC1 [Compound 27, 3-{[4-(4-methylpiperazin-1-yl)benzoyl]amino}-N-(1-phenylcyclopentyl)-1H-furo[3,2-c]pyrazole-5-carboxamide] | < 10
CC(C)(NC(=O)c1cc2[nH]nc(NC(=O)c3ccco3)c2o1)c1ccccc1 [Compound 28, 3-(2-furoylamino)-N-(1-methyl-1-phenylethyl)-1H-furo[3,2-c]pyrazole-5-carboxamide] | < 10
CN1CCC(Oc2ccc(C(=O)Nc3n[nH]c4cc(C(=O)NC(C)(C)c5ccccc5)oc34)cc2)CC1 [Compound 30, N-(1-methyl-1-phenylethyl)-3-({4-[(1-methylpiperidin-4-yl)oxy]benzoyl}amino)-1H-furo[3,2-c]pyrazole-5-carboxamide] | < 10
CN1CCN(Cc2ccc(C(=O)Nc3n[nH]c4cc(C(=O)NC(C)(C)c5ccccc5)oc34)cc2)CC1 [Compound 31, N-(1-methyl-1-phenylethyl)-3-({4-[(4-methylpiperazin-1-yl)methyl]benzoyl}amino)-1H-furo[3,2-c]pyrazole-5-carboxamide] | < 10
CC(C)(NC(=O)c1cc2[nH]nc(NC(=O)c3ccc(CN4CCOCC4)cc3)c2o1)c1ccccc1 [Compound 32, N-(1-methyl-1-phenylethyl)-3-{[4-(morpholin-4-ylmethyl)benzoyl]amino}-1H-furo[3,2-c]pyrazole-5-carboxamide] | < 10
Cn1cccc1C(=O)Nc1n[nH]c2cc(C(=O)NC(C)(C)c3ccccc3)oc12 [Compound 33, N-(1-methyl-1-phenylethyl)-3-{[(1-methyl-1H-pyrrol-2-yl)carbonyl]amino}-1H-furo[3,2-c]pyrazole-5-carboxamide] | < 10
CC(C)(NC(=O)c1cc2[nH]nc(NC(=O)c3ccc(CN4CCCC4)cc3)c2o1)c1ccccc1 [Compound 34, N-(1-methyl-1-phenylethyl)-3-{[4-(pyrrolidin-1-ylmethyl)benzoyl]amino}-1H-furo[3,2-c]pyrazole-5-carboxamide] | < 10
Cc1cc(C(=O)Nc2n[nH]c3cc(C(=O)NC(C)(C)c4ccccc4)oc23)n(C)n1 [Compound 38, 3-{[(1,3-dimethyl-1 H-pyrazol-5-yl)carbonyl]amino}-N-(1-methyl-1-phenylethyl)-1H-furo[3,2-c]pyrazole-5-carboxamide] | < 10
CC(C)(NC(=O)c1cc2[nH]nc(NC(=O)c3ccco3)c2o1)c1ccccc1F [Compound 39, N-[1-(2-fluorophenyl)-1-methylethyl]-3-(2-furoylamino)-1H-furo[3,2-c]pyrazole-5-carboxamide] | < 10
O=C(Nc1n[nH]c2cc(C(=O)NC3(c4ccccc4)CCCC3)oc12)c1ccco1 [Compound 40, 3-(2-furoylamino)-N-(1-phenylcyclopentyl)-1H-furo[3,2-c]pyrazole-5-carboxamide] | < 10
Cc1occc1C(=O)Nc1n[nH]c2cc(C(=O)NC(C)(C)c3ccccc3)oc12 [Compound 41, 3-[(2-methyl-3-furoyl)amino]-N-(1-methyl-1-phenylethyl)-1H-furo[3,2-c]pyrazole-5-carboxamide] | < 10
CC(C)(NC(=O)c1cc2[nH]nc(NC(=O)c3ccc(CN4CCC4)cc3)c2o1)c1ccccc1 [Compound 43, 3-{[4-(azetidin-1-ylmethyl)benzoyl]amino}-N-(1-methyl-1-phenylethyl)-1H-furo[3,2-c]pyrazole-5-carboxamide] | < 10
Cc1ccsc1C(=O)Nc1n[nH]c2cc(C(=O)NC(C)(C)c3ccccc3)oc12 [Compound 44, N-(1-methyl-1-phenylethyl)-3-{[(3-methyl-2-thienyl)carbonyl]amino}-1H-furo[3,2-c]pyrazole-5-carboxamide] | < 10
Cc1ccc(C(=O)Nc2n[nH]c3cc(C(=O)NC(C)(C)c4ccccc4)oc23)s1 [Compound 45, N-(1-methyl-1-phenylethyl)-3-{[(5-methyl-2-thienyl)carbonyl]amino}-1H-furo[3,2-c]pyrazole-5-carboxamide] | < 10
Cc1csc(C(=O)Nc2n[nH]c3cc(C(=O)NC(C)(C)c4ccccc4)oc23)c1 [Compound 48, N-(1-methyl-1-phenylethyl)-3-{[(4-methyl-2-thienyl)carbonyl]amino}-1H-furo[3,2-c]pyrazole-5-carboxamide] | < 10
Cc1cc(C(=O)Nc2n[nH]c3cc(C(=O)NC(C)(C)c4ccccc4)oc23)c(C)o1 [Compound 50, 3-[(2,5-dimethyl-3-furoyl)amino]-N-(1-methyl-1-phenylethyl)-1H-furo[3,2-c]pyrazole-5-carboxamide] | < 10
Cc1ccc(C(=O)Nc2n[nH]c3cc(C(=O)NC(C)(C)c4ccccc4)oc23)o1 [Compound 51, 3-[(5-methyl-2-furoyl)amino]-N-(1-methyl-1-phenylethyl)-1H-furo[3,2-c]pyrazole-5-carboxamide] | < 10
Cc1ccoc1C(=O)Nc1n[nH]c2cc(C(=O)NC(C)(C)c3ccccc3)oc12 [Compound 53, 3-[(3-methyl-2-furoyl)amino]-N-(1-methyl-1-phenylethyl)-1H-furo[3,2-c]pyrazole-5-carboxamide] | < 10
Cn1nccc1C(=O)Nc1n[nH]c2cc(C(=O)NC(C)(C)c3ccccc3)oc12 [Compound 55, N-(1-methyl-1-phenylethyl)-3-{[(1-methyl-1H-pyrazol-5-yl)carbonyl]amino}-1H-furo[3,2-c]pyrazole-5-carboxamide] | < 10
Cn1ccc(C(=O)Nc2n[nH]c3cc(C(=O)NC(C)(C)c4ccccc4)oc23)n1 [Compound 56, N-(1-methyl-1-phenylethyl)-3-{[(1-methyl-1H-pyrazol-3-yl)carbonyl]amino}-1H-furo[3,2-c]pyrazole-5-carboxamide] | < 10
CC(C)(NC(=O)c1cc2[nH]nc(NC(=O)c3cccs3)c2o1)c1ccccc1F [Compound 57, N-[1-(2-fluorophenyl)-1-methylethyl]-3-[(2-thienylcarbonyl)amino]-1H-furo[3,2-c]pyrazole-5-carboxamide] | < 10
CC(C)(NC(=O)c1cc2[nH]nc(NC(=O)c3cccs3)c2o1)c1ccc(F)cc1F [Compound 58, N-[1-(2,4-difluorophenyl)-1-methylethyl]-3-[(2-thienylcarbonyl)amino]-1H-furo[3,2-c]pyrazole-5-carboxamide] | < 10
CC(C)(NC(=O)c1cc2[nH]nc(NC(=O)c3ccc(CN4CCCCC4)cc3)c2o1)c1ccccc1 [Compound 59, N-(1-methyl-1-phenylethyl)-3-{[4-(piperidin-1-ylmethyl)benzoyl]amino}-1H-furo[3,2-c]pyrazole-5-carboxamide] | < 10
